Data taken from patent publication US9193719B2, “1,2,4-triazol-5-ones and analogs exhibiting anti-cancer and anti-proliferative activities” (Deciphera Pharmaceuticals, LLC, priority 2013, dated 2015).

Columns and labels:
osteoclast precursors = assay: Osteoclast tartrate-resistant acid phosphatase assay; type: cell-based; details: RANKL and M-CSF, 7-14 days, tartrate-resistant acid phosphatase activity
[1] = test system: MDA-MB-231-luc-D3H2LN human breast carcinoma xenograft; assay: MDA-MB-231 xenograft study; type: in vivo, mouse; details: orally dosed at 15 mpk twice daily
Procedure: MDA-MB-231 Xenograft Study
To evaluate the in vivo anti-cancer activity compounds of Formula I, a MDA-MB-231-luc-D3H2LN human breast carcinoma xenograft was employed. Briefly, MDA-MB-231-luc-D3H2LN cells were obtained from Xenogen and expanded in Minimal Essential Media (MEM) with EBSS which was modified with 1% L-glutamine and supplemented with 10% FBS, 1% PSG, 1% non-essential amino acids, and 1% sodium pyruvate. The growth environment was maintained in an incubator with a 5% CO2 atmosphere at 37° C. Cells were harvested and re-suspended using 50% serum-free media and 50% Matrigel® to generate a stock concentration of 5×10^6 cells/mL.
Six to 7 week old female C.B-17/IcrHsd-PrkdcscidLystbg mice were injected with 200 μL of cell suspension subcutaneously, just below the right axilla. All procedures carried out in this experiment were conducted in compliance with all the laws, regulations and guidelines of the National Institutes of Health (NIH). Treatment began when the mean tumor burden is approximately 150 mg. All mice were dosed with test compound by oral gavage. Body weights and tumor measurements were recorded three times weekly. […] Images were analyzed using Living Image (Xenogen, Alameda, Calif.) software. […]

[2] = target: T1, unphosphorylated c-FMS kinase (uFMS, Seq. ID no. 1) (Homo sapiens, UniProt P07333); assay: uFMS kinase enzymatic assay (pyruvate kinase/lactate dehydrogenase coupled); type: biochemical; details: ATP 500 μM, rate 3 to 4 h
T1 construct: purchased Millipore
T1 sequence (P07333 538-972): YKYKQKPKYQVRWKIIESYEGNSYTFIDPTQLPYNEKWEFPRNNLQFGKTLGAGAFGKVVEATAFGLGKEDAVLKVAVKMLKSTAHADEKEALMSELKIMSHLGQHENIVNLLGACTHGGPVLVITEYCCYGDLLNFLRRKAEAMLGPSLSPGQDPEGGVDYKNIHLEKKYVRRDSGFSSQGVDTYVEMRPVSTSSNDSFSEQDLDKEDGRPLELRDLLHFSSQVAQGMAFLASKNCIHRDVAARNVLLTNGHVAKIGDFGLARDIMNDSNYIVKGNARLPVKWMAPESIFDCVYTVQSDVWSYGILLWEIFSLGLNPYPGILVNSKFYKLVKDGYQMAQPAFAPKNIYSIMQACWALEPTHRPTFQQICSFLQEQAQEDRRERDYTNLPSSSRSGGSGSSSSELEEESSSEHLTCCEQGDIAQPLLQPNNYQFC
Procedure, shortened: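 Coupled PK/LDH assay following NADH oxidation at A340 with 10 nM unphosphorylated FMS, 1 mg/mL polyE4Y, 500 μM ATP in 90 mM Tris pH 7.5, 0.2% octyl-glucoside, 1% DMSO. Read continuously 4 h at 30 °C; rate from 3–4 h window versus no-compound control; IC50 from percent-inhibition series.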

SMILES	IC50 (osteoclast precursors) [nM]	tumor growth inhibition [1] [%]	IC50 [2] [nM]
Cc1nc(-n2nc(C(C)(C)C)[nH]c2=O)ccc1Oc1ccnc(-c2cnn(C)c2)c1 [Example 7, 3-(tert-butyl)-1-(6-methyl-5-((2-(1-methyl-1H-pyrazol-4-yl)pyridin-4-yl)oxy)pyridin-2-yl)-1H-1,2,4-triazol-5(4H)-one]	10 to 100	39	≤ 10
COCC(C)(C)c1nn(-c2ccc(Oc3ccnc(-c4cnn(C)c4)c3)c(C)n2)c(=O)[nH]1 [Example 46, 3-(1-methoxy-2-methylpropan-2-yl)-1-(6-methyl-5-((2-(1-methyl-1H-pyrazol-4-yl)pyridin-4-yl)oxy)pyridin-2-yl)-1H-1,2,4-triazol-5(4H)-one]	10 to 100		10 to 100
Cc1nc(-n2nc(C(C)(C)C)[nH]c2=O)ccc1Oc1cc(-c2cnn(C)c2)ncn1 [Example 47, 3-(tert-butyl)-1-(6-methyl-5-((6-(1-methyl-1H-pyrazol-4-yl)pyrimidin-4-yl)oxy)pyridin-2-yl)-1H-1,2,4-triazol-5(4H)-one]	10 to 100		10 to 100
Cc1nc(-n2cc(C(C)(C)C)[nH]c2=O)ccc1Oc1ccnc(-c2cnn(C)c2)c1 [Example 48, 4-(tert-butyl)-1-(6-methyl-5-((2-(1-methyl-1H-pyrazol-4-yl)pyridin-4-yl)oxy)pyridin-2-yl)-1H-imidazol-2(3H)-one]	10 to 100		10 to 100
Cc1nc(-n2nc(C(C)(C)C)oc2=O)ccc1Oc1ccnc(-c2cnn(C)c2)c1 [Example 49, 5-(tert-butyl)-3-(6-methyl-5-((2-(1-methyl-1H-pyrazol-4-yl)pyridin-4-yl)oxy)pyridin-2-yl)-1,3,4-oxadiazol-2(3H)-one]	10 to 100		10 to 100
